US10632125B2, “MTH1 inhibitors for treatment of inflammatory and autoimmune conditions” (THOMAS HELLEDAYS STIFTELSE FÖR MEDICINSK FORSKNING, priority 2014, dated 2020)

Molecular target: MTH1 (Homo sapiens, UniProt P36639)
Test: MTH1 enzymatic assay (malachite green, coupled to pyrophosphatase)
Format: biochemical
Settings: dGTP 100 μM, MTH1 6 nM; 96- or 384-well format; read-out: IC50
Procedure: MTH1 catalyzes the hydrolysis of dGTP to dGMP and PPi. By coupling the reaction to pyrophosphatase added in excess PPi is converted to Pi that can be detected by using the malachite green assay reagent. […] 96-well method: Briefly, the compound to be analyzed is diluted in DMSO in a 1:3 dilution series generating 12 different compound concentrations giving a final DMSO concentration of 1% in the assay well. MTH1 diluted in assay buffer (100 mM Tris-acetate, 40 mM NaCl, 10 mM magnesium acetate, 1 mM DTT and 0.005% Tween 20) fortified with E. coli pyrophosphatase (0.2 U/ml) is added to a final concentration of 6 nM. dGTP diluted in assay buffer is added to a final concentration of 100 μM. The reaction mixture is incubated for 15 minutes at 22° C. To 100 μl reaction mixture, 25 μl Malachite green assay regent (0.095% Malachite green in 17% H2SO4, 1.5% Ammonium molybdate, 0.17% Tween 20) is added, followed by incubation with shaking for 15 minutes at 22° C. The absorbance of the assay plate is read at 630 nm using a Hidex Sense Multilabel plate reader. The IC50 value is determined by fitting a dose response curve to the data points using nonlinear regression analysis and the equation Y=Bottom+(Top-Bottom)/(1+10^((Log IC50−X)*HillSlope)), where Y is the read absorbance at 630 nm and X is log [compound].
384-Well Method: The compounds to be tested are nano-dispensed, in 11 concentrations, directly in assay plates, with a final DMSO concentration <1%. The protocol and the reaction mixture are the same as for the 96-well assay, with a total reaction volume of 50 μl/well to which 10 μl of Malachite green reagent is added. All additions to the assay plates are made with multidrop.

SMILES | IC50
Cc1cccc(-c2cc(NC3CCCC3)nc(N)n2)c1C [Example 153, 4-N-cyclopentyl-6-(2,3-dimethylphenyl)pyrimidine-2,4-diamine] | < 200 nM
CNc1cc(-c2cn(S(=O)(=O)c3ccc(C(F)(F)F)cc3)c3ccccc23)nc(N)n1 [Example 155, 4-N-methyl-6-{1-[4-(trifluoromethyl)benzenesulfonyl]-1H-indol-3-yl}pyrimidine-2,4-diamine] | < 200 nM
Cc1cccc(-c2cc(NC3CCCCC3)nc(N)n2)c1C [Example 156, 4-N-cyclohexyl-6-(2,3-dimethylphenyl)pyrimidine-2,4-diamine] | < 200 nM
CCNc1cc(-c2cccc(C)c2C)nc(N)n1 [Example 158, 6-(2,3-dimethylphenyl)-4-N-ethylpyrimidine-2,4-diamine] | < 200 nM
Cc1ccc(S(=O)(=O)n2cc(-c3cc(NC(C)C)nc(N)n3)c3ccccc32)cc1 [Example 163, 6-[1-(4-methylbenzenesulfonyl)-1H-indol-3-yl]-4-N-(propan-2-yl)pyrimidine-2,4-diamine] | < 200 nM
CNc1cc(-c2coc3ccccc23)nc(N)n1 [Example 170, 6-(1-benzofuran-3-yl)-4-N-methylpyrimidine-2,4-diamine] | < 200 nM
CNc1cc(-c2csc3ccccc23)nc(N)n1 [Example 172, 6-(1-benzothiophen-3-yl)-4-N-methylpyrimidine-2,4-diamine] | < 200 nM
CC(C)Nc1cc(-c2cccc(Cl)c2Cl)nc(N)n1 [Example 176, 6-(2,3-dichlorophenyl)-4-N-(propan-2-yl)pyrimidine-2,4-diamine] | < 200 nM
Nc1nc(NCC2CC2)cc(-c2cccc(Cl)c2Cl)n1 [Example 177, 4-N-(cyclopropylmethyl)-6-(2,3-dichlorophenyl)pyrimidine-2,4-diamine] | < 200 nM
CNc1cc(-c2cc(Br)ccc2OC)nc(N)n1 [Example 183, 6-(5-bromo-2-methoxyphenyl)-4-N-methylpyrimidine-2,4-diamine] | < 200 nM
CNc1cc(-c2cc(C)ccc2C)nc(N)n1 [Example 184, 6-(2,5-dimethylphenyl)-4-N-methylpyrimidine-2,4-diamine] | < 200 nM
CNc1cc(-c2cccnc2C(F)(F)F)nc(N)n1 [Example 185, 4-N-methyl-6-[2-(trifluoromethyl)pyridin-3-yl]pyrimidine-2,4-diamine] | < 200 nM
CNc1cc(-c2ccc(OCc3ccccc3)cc2C)nc(N)n1 [Example 187, 6-[4-(benzyloxy)-2-methylphenyl]-4-N-methylpyrimidine-2,4-diamine] | < 200 nM
CNc1cc(-c2cc(C)c(OC)cc2C)nc(N)n1 [Example 188, 6-(4-methoxy-2,5-dimethylphenyl)-4-N-methylpyrimidine-2,4-diamine] | < 200 nM
CNc1cc(-c2cc(C)c(C)cc2C)nc(N)n1 [Example 189, 4-N-methyl-6-(2,4,5-trimethylphenyl)pyrimidine-2,4-diamine] | < 200 nM
CNc1cc(-c2cc(Cl)ccc2C#N)nc(N)n1 [Example 190, 2-[2-amino-6-(methylamino)pyrimidin-4-yl]-4-chlorobenzonitrile] | < 200 nM
CNc1cc(-c2cc(Cl)c(Cl)cc2C)nc(N)n1 [Example 191, 6-(4,5-dichloro-2-methylphenyl)-4-N-methylpyrimidine-2,4-diamine] | < 200 nM
CNc1cc(-c2cc(C)c(F)cc2C)nc(N)n1 [Example 193, 6-(4-fluoro-2,5-dimethylphenyl)-4-N-methylpyrimidine-2,4-diamine] | < 200 nM
CNc1cc(-c2cc(C(F)(F)F)ccc2C)nc(N)n1 [Example 194, 4-N-methyl-6-[2-methyl-5-(trifluoromethyl)phenyl]pyrimidine-2,4-diamine] | < 200 nM
CNc1cc(-c2cc(Cl)c(C(F)(F)F)cc2C)nc(N)n1 [Example 195, 6-[5-chloro-2-methyl-4-(trifluoromethyl)phenyl]-4-N-methylpyrimidine-2,4-diamine] | < 200 nM

The remaining lines, values ahead:

IC50 | SMILES
< 200 nM | CNc1cc(-c2cc(C(F)(F)F)ccc2C(F)(F)F)nc(N)n1 [Example 196, 6-[2,5-bis(trifluoromethyl)phenyl]-4-N-methylpyrimidine-2,4-diamine]
< 200 nM | CNc1cc(-c2cc(C)ccc2F)nc(N)n1 [Example 200, 6-(2-fluoro-5-methylphenyl)-4-N-methylpyrimidine-2,4-diamine]
< 200 nM | CNc1cc(-c2cc(C)ccc2OC)nc(N)n1 [Example 204, 6-(2-methoxy-5-methylphenyl)-4-N-methylpyrimidine-2,4-diamine]
< 200 nM | CNc1cc(-c2cc(F)ccc2Cl)nc(N)n1 [Example 205, 6-(2-chloro-5-fluorophenyl)-4-N-methylpyrimidine-2,4-diamine]
< 200 nM | CNc1cc(-c2cc(C#N)ccc2F)nc(N)n1 [Example 206, 3-[2-amino-6-(methylamino)pyrimidin-4-yl]-4-fluorobenzonitrile]
< 200 nM | CNc1cc(-c2cc(OC)ccc2Cl)nc(N)n1 [Example 207, 6-(2-chloro-5-methoxyphenyl)-4-N-methylpyrimidine-2,4-diamine]
< 200 nM | CNc1cc(-c2cc(Cl)c(C)cc2F)nc(N)n1 [Example 214, 6-(5-chloro-2-fluoro-4-methylphenyl)-4-N-methylpyrimidine-2,4-diamine]
< 200 nM | Cc1cc(-c2cc(NC3CC3)nc(N)n2)c(C)cc1F [Example 216, 4-N-cyclopropyl-6-(4-fluoro-2,5-dimethylphenyl)pyrimidine-2,4-diamine]
< 200 nM | COc1cc(C)c(-c2cc(NC3CC3)nc(N)n2)cc1C [Example 217, 4-N-cyclopropyl-6-(4-methoxy-2,5-dimethylphenyl)pyrimidine-2,4-diamine]
< 200 nM | Cc1ccc(C)c(-c2cc(NC3CC3)nc(N)n2)c1 [Example 218, 4-N-cyclopropyl-6-(2,5-dimethylphenyl)pyrimidine-2,4-diamine]
< 200 nM | CCNc1cc(-c2cc(Cl)ccc2C)nc(N)n1 [Example 221, 6-(5-chloro-2-methylphenyl)-4-N-ethylpyrimidine-2,4-diamine]
< 200 nM | Cc1cc(-c2cc(NCCc3ccc(Cl)cc3)nc(N)n2)c(C)cc1F [Example 223, 4-N-[2-(4-chlorophenyl)ethyl]-6-(4-fluoro-2,5-dimethylphenyl)pyrimidine-2,4-diamine]
< 200 nM | Cc1ccc(C)c(-c2cc(NCCc3ccc(Cl)cc3)nc(N)n2)c1 [Example 224, 4-N-[2-(4-chlorophenyl)ethyl]-6-(2,5-dimethylphenyl)pyrimidine-2,4-diamine]
< 200 nM | CNc1cc(-c2ccc(/C=C/C(=O)O)cc2)nc(N)n1 [Example 233, (2E)-3-{4-[2-amino-6-(methylamino)pyrimidin-4-yl]phenyl}prop-2-enoic acid]
< 200 nM | Cc1cccc(-c2cc(NCC3CN(C(=O)OC(C)(C)C)C3)nc(N)n2)c1C [Example 234, tert-butyl 3-({[2-amino-6-(2,3-dimethylphenyl)pyrimidin-4-yl]amino}methyl)-azetidine-1-carboxylate]
< 200 nM | Nc1nc(NC2CC2)cc(-c2ccc3[nH]ccc3c2)n1 [Example 235, 4-N-cyclopropyl-6-(1H-indol-5-yl)pyrimidine-2,4-diamine]
< 200 nM | Cc1cccc(-c2cc(NCC(C)(C)CNC(=O)OC(C)(C)C)nc(N)n2)c1C [Example 239, tert-Butyl (3-((2-amino-6-(2,3-dimethylphenyl)pyrimidin-4-yl)amino)-2,2-dimethyl-propyl)carbamate]
< 200 nM | CNc1cc(-c2cc(Cl)c(OC)cc2C)nc(N)n1 [Example 240, 6-(5-chloro-4-methoxy-2-methylphenyl)-4-N-methylpyrimidine-2,4-diamine]
< 200 nM | Cc1c(Cl)cccc1-c1cc(NC(C)Cc2c[nH]c3ccccc23)nc(N)n1 (stereo not shown) [Example 243, 6-(3-chloro-2-methylphenyl)-4-N-[1-(1H-indol-3-yl)propan-2-yl]pyrimidine-2,4-diamine]
< 200 nM | Cc1cccc(-c2cc(NCCOc3ccccc3Cl)nc(N)n2)c1C [Example 247, 4-N-[2-(2-chlorophenoxy)ethyl]-6-(2,3-dimethylphenyl)pyrimidine-2,4-diamine]
< 200 nM | Cc1cccc(-c2cc(NCCc3nc4cc(Cl)ccc4[nH]3)nc(N)n2)c1C [Example 248, 4-N-[2-(5-chloro-1H-1,3-benzodiazol-2-yl)ethyl]-6-(2,3-dimethylphenyl)pyrimidine-2,4-diamine]
< 200 nM | Cc1cccc(-c2cc(NCC(C)Oc3cccnc3)nc(N)n2)c1C (stereo not shown) [Example 250, 6-(2,3-dimethylphenyl)-4-N-[2-(pyridin-3-yloxy)propyl]pyrimidine-2,4-diamine]
< 200 nM | Cc1cccc(-c2cc(NCc3ccc4[nH]ncc4c3)nc(N)n2)c1C [Example 251, 6-(2,3-dimethylphenyl)-4-N-(1H-indazol-5-ylmethyl)pyrimidine-2,4-diamine]
